The experiment concerns the target T1, Human Polθ polymerase domain (aa1820-2590) (Homo sapiens, UniProt O75417).
T1 construct: Human Polθ polymerase domain (aa1820-2590) was expressed in E. coli; made in house; host or cells: E. coli
T1 sequence (O75417 1820-2590): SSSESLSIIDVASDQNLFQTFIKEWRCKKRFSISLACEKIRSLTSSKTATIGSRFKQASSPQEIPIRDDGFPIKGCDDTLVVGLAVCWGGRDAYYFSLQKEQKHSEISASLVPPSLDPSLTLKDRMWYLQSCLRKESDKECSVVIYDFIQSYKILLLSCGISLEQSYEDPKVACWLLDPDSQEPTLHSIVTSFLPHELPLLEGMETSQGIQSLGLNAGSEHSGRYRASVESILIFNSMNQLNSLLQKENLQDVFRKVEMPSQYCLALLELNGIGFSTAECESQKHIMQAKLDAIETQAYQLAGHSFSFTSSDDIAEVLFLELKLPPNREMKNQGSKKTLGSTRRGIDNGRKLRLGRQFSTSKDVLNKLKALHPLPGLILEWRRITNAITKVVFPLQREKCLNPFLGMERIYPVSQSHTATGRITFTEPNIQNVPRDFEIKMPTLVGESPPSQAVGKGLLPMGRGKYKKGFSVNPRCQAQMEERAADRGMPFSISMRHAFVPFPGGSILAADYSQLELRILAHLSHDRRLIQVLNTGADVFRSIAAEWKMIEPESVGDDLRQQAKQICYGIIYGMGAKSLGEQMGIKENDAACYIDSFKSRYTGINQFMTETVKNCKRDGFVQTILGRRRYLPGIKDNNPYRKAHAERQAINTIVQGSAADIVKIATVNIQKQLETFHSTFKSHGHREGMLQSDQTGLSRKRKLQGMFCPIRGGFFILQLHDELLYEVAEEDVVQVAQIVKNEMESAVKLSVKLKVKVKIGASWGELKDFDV
Put plainly: Polθ Polymerase Domain Kinact/KI Assay (PicoGreen). The format is biochemical. Particulars: 0.8 nM Polθ, 100 nM DNA substrate, kobs vs [I] fit for 2-step covalent inhibitor. The procedure:
Polθ Polymerase Domain Kinact/KI Assay
A PicoGreen assay was used to measure the Kinact and KI values of covalent compounds that inhibit the activity of Polθ in vitro.
Human Polθ polymerase domain (aa1820-2590) was expressed in E. coli, purified, aliquoted and stored at −80° C. until required. Polθ substrate was generated from a 1.2:1 mix of DNA II Short to DNA II Long to give a final concentration of […] substrate in annealing buffer (20 mM Tris pH 7.5, 50 mM NaCl). The substrate was heated in […] aliquots to 95° C. in a heating block for 5 min before the heating block switched off, the reaction left to cool to rt and stored at −20° C. until required.
Assay measurements were performed with 1× buffer comprising 25 mM Tris pH 7.5, 12.5 mM NaCl, […], 5% (v/v) glycerol, 0.01% v/v Triton x-100, 0.1 mg/ml BSA, 1 mM DTT. Test compounds were prepared by dilution in 100% DMSO to give a 12 μM intermediate stock of each (100× final top concentration). 100 nL of 23×1:1.5-fold serial dilutions and a DMSO only control were dispensed using the Tecan dispenser into Greiner 384 well black low volume plates (product code 784076). DMSO concentration was maintained at 1% of the final assay volume by back filling with DMSO.
2× Working stock of substrate (200 nM of DNA substrate and […] dNTPs) and enzyme ([…] PolΘ) were made up in assay buffer. 5 μL/well of both enzyme and substrate 2× solutions were dispensed using a Tempest dispenser (Formulatrix) into assay plates that had been pre-dispensed with compound to give a final assay concentration of 100 nM DNA substrate, […] dNTPs and 0.8 nM Polθ. To stop the reaction, […] of a solution containing 25 mM Tris-HCl pH 7.5 and 20 mM EDTA was added at […] (t=0, 2.5, 5, 7.5, 10, 12.5, 15, 20, 25, 30, 35, 40, 45, 50, 55 and 60 min) using the Tempest's time delay function. The plates were covered during the time course to prevent evaporation. After completing the assay, 5 μL of detection reagent (25 mM Tris-HCl pH 7.5 and 2.5% (v/v) PicoGreen) was dispensed into the wells using a Tempest liquid handler (Formulatrix) and plates subsequently read on the CLARIOstar Plus (BMG Labtech) using the default optical settings for fluorescein and the auto gain/focus settings.
All data analysis was carried out using GraphPad Prism V.8 (GraphPad Software Inc, San Diego, CA) Time course data for each inhibitor concentration was fitted to equation 1 to determine kobs values.^1 Any time points where the control (DMSO alone) reaction was no longer linear were excluded from the analysis. 1) Evaluation of Enzyme Inhibitors in Drug Discovery (Ch9), R. A Copeland, Wiley, 2nd Edition 2013.
A secondary plot of kobs vs [I] is used to determine the Kinact and KI parameters (for a 2-step covalent inhibitor) by fitting to equation 2.^1
In turn, `C=CC(=O)N1C[C@H]2C[C@@H]1CN2CCN1C[C@H]2CC(=O)N(c3cc(C(F)(F)F)cc(C)n3)[C@@H]2C(=O)N(C)c2cccc(C)c21` [Example 263, (3aR,11aS)-5-(2-((1R,4R)-5-acryloyl-2,5-diazabicyclo[2.2.1]heptan-2-yl)ethyl)-6,10-dimethyl-1-(6-methyl-4-(trifluoromethyl)pyridin-2-yl)-1,3a,4,5,10,11a-hexahydro-2H-benzo[b]pyrrolo[2,3-f][1,4]diazocine-2,11(3H)-dione] yielded a Kinact/Kl of 1.06e+06 M⁻¹ s⁻¹.

For `C=CC(=O)N1CC(c2nc(CN3C[C@H]4CC(=O)N(c5cc(C(F)(F)F)cc(C)n5)[C@@H]4C(=O)N(C)c4cccc(F)c43)n(C)n2)C1` [Example 99, (3aR,11aS)-5-((3-(1-acryloylazetidin-3-yl)-1-methyl-1H-1,2,4-triazol-5-yl)methyl)-6-fluoro-10-methyl-1-(6-methyl-4-(trifluoromethyl)pyridin-2-yl)-1,3a,4,5,10,11a-hexahydro-2H-benzo[b]pyrrolo[2,3-f][1,4]diazocine-2,11(3H)-dione], the Kinact/Kl came to 170000 M⁻¹ s⁻¹.

Molecule `C=CC(=O)N1CC(N2CCC(CN3C[C@H]4CC(=O)N(c5cc(C(F)(F)F)cc(C)n5)[C@@H]4C(=O)N(C)c4cccc(F)c43)CC2)C1` [Example 212, (3aR,11aS)-5-((1-(1-acryloylazetidin-3-yl)piperidin-4-yl)methyl)-6-fluoro-10-methyl-1-(6-methyl-4-(trifluoromethyl)pyridin-2-yl)-1,3a,4,5,10,11a-hexahydro-2H-benzo[b]pyrrolo [2,3-f][1,4] diazocine-2,11 (3H)-dione] returned a Kinact/Kl of 1.81e+06 M⁻¹ s⁻¹.

`C=CC(=O)N1C[C@H]2CN(CCN3C[C@H]4CC(=O)N(c5cc(C(F)(F)F)cc(C)n5)[C@@H]4C(=O)N(C)c4cccc(F)c43)CCN2[C@H](C)C1` (relative stereo) [Example 64a, (3aR,11aS)-5-(2-((6R/S,9aR/S)-8-acryloyl-6-methyloctahydro-2H-pyrazino[1,2-a]pyrazin-2-yl)ethyl)-6-fluoro-10-methyl-1-(6-methyl-4-(trifluoromethyl)pyridin-2-yl)-1,3a,4,5,10,11a-hexahydro-2H-benzo[b]pyrrolo[2,3-f][1,4]diazocine-2,11(3H)-dione]: the Kinact/Kl came to 2.06e+06 M⁻¹ s⁻¹.

In turn, `C=CC(=O)N1Cc2ncc(CN3C[C@H]4CC(=O)N(c5cc(C(F)(F)F)cc(C)n5)[C@@H]4C(=O)N(C)c4cccc(Cl)c43)cc2C1CC#N` (single isomer, unassigned) [Example 291a] yielded a Kinact/Kl of 1.17e+06 M⁻¹ s⁻¹.

Take `C=CC(=O)Nc1ccc(CN2C[C@H]3CC(=O)N(c4cc(C(F)(F)F)cc(C)n4)[C@@H]3C(=O)N(C)c3cccc(C)c32)cc1` [Example 87, N-(4-(((3aR,11aS)-6,10-dimethyl-1-(6-methyl-4-(trifluoromethyl)pyridin-2-yl)-2,11-dioxo-1,2,3,3a,4,10,11,11a-octahydro-5H-benzo[b]pyrrolo[2,3-f][1,4]diazocin-5-yl)methyl)phenyl)acrylamide]: the Kinact/Kl turned out to be 810000 M⁻¹ s⁻¹.

`C=CC(=O)N1C[C@@H](n2cnc(CN3C[C@H]4CC(=O)N(c5cc(C(F)(F)F)cc(C)n5)[C@@H]4C(=O)N(C)c4cccc(C)c43)c2)[C@@H](F)C1` (single isomer, unassigned) [Example 326b] had a Kinact/Kl of 1.52e+06 M⁻¹ s⁻¹.

Molecule `C=CC(=O)N1Cc2cc(CN3C[C@H]4CC(=O)N(c5cc(C(F)(F)F)cc(C)n5)[C@@H]4C(=O)N(C)c4cccc(C)c43)cnc2[C@H]1CO` (racemic) [Example 233, (3aR,11aS)-5-(((S/R)-6-acryloyl-7-(hydroxymethyl)-6,7-dihydro-5H-pyrrolo[3,4-b]pyridin-3-yl)methyl)-6,10-dimethyl-1-(6-methyl-4-(trifluoromethyl)pyridin-2-yl)-1,3a,4,5,10,11a-hexahydro-2H-benzo[b]pyrrolo[2,3-f][1,4]diazocine-2,11(3H)-dione] displayed a Kinact/Kl of 2.99e+06 M⁻¹ s⁻¹.

`C=CC(=O)N1CCn2nc(CN3C[C@H]4CC(=O)N(c5cc(C(F)(F)F)cc(C)n5)[C@@H]4C(=O)N(C)c4cccc(F)c43)nc2C1` [Example 133, (3aR,11aS)-5-((7-acryloyl-5,6,7,8-tetrahydro-[1,2,4]triazolo[1,5-a]pyrazin-2-yl)methyl)-6-fluoro-10-methyl-1-(6-methyl-4-(trifluoromethyl)pyridin-2-yl)-1,3a,4,5,10,11a-hexahydro-2H-benzo[b]pyrrolo[2,3-f][1,4]diazocine-2,11(3H)-dione] had a Kinact/Kl of 1.7e+06 M⁻¹ s⁻¹.

Molecule `C=CC(=O)N1Cc2nc(CN3C[C@H]4CC(=O)N(c5cc(C(F)(F)F)cc(C)n5)[C@@H]4C(=O)N(C)c4cccc(Cl)c43)n(C)c2C1` [Example 242, (3aR,11aS)-5-((5-acryloyl-1-methyl-1,4,5,6-tetrahydropyrrolo[3,4-d]imidazol-2-yl)methyl)-6-chloro-10-methyl-1-(6-methyl-4-(trifluoromethyl)pyridin-2-yl)-1,3a,4,5,10,11a-hexahydro-2H-benzo[b]pyrrolo[2,3-f][1,4]diazocine-2,11(3H)-dione] showed a Kinact/Kl of 660000 M⁻¹ s⁻¹.

With `Cc1cc(C(F)(F)F)cc(N2C(=O)C[C@@H]3CN(Cc4ccc5c(c4)CN(C(=O)/C=C/CN(C)C)[C@H]5CC#N)c4c(Cl)cccc4N(C)C(=O)[C@H]32)n1` (racemic) [Example 310a, 2-((S/R)-5-(((3aR,11aS)-6-chloro-10-methyl-1-(6-methyl-4-(trifluoromethyl)pyridin-2-yl)-2,11-dioxo-1,2,3,3a,4,10,11,11a-octahydro-5H-benzo[b]pyrrolo[2,3-f][1,4]diazocin-5-yl)methyl)-2-((E)-4-(dimethylamino)but-2-enoyl)isoindolin-1-yl)acetonitrile], the Kinact/Kl amounted to 2.31e+06 M⁻¹ s⁻¹.

For `C=CC(=O)N1CC(N2CCN(CCN3C[C@H]4CC(=O)N(c5cc(C(F)(F)F)cc(C)n5)[C@@H]4C(=O)N(C)c4cccc(Cl)c43)CC2=O)C1` [Example 112, (3aR,11aS)-5-(2-(4-(1-acryloylazetidin-3-yl)-3-oxopiperazin-1-yl)ethyl)-6-chloro-10-methyl-1-(6-methyl-4-(trifluoromethyl)pyridin-2-yl)-1,3a,4,5,10,11a-hexahydro-2H-benzo[b]pyrrolo[2,3-f][1,4]diazocine-2,11(3H)-dione], the Kinact/Kl turned out to be 920000 M⁻¹ s⁻¹.

`Cc1cc(C(F)(F)F)cc(N2C(=O)C[C@@H]3CN(Cc4ccc(C5CN(C(=O)/C=C/CN(C)C)C5)cc4)c4c(F)cccc4N(C)C(=O)[C@H]32)n1` [Example 146, (3aR,11aS)-5-(4-(1-((E)-4-(dimethylamino)but-2-enoyl)azetidin-3-yl)benzyl)-6-fluoro-10-methyl-1-(6-methyl-4-(trifluoromethyl)pyridin-2-yl)-1,3a,4,5,10,11a-hexahydro-2H-benzo[b]pyrrolo[2,3-f][1,4]diazocine-2,11(3H)-dione] displayed a Kinact/Kl of 1.68e+06 M⁻¹ s⁻¹.

The values above are taken from patent publication US20250230165A1, “HETEROCYCLIC COMPOUNDS FOR USE IN THE TREATMENT OF CANCER” (ARTIOS PHARMA LIMITED, priority 2021, published 2025).
